Results on 11 molecules are retold here after publication PMC5521769, “Identification of odorant binding proteins and chemosensory proteins in Microplitis mediator as well as functional characterization of chemosensory protein 3” (PLoS ONE, 2017).

For test [1], the system named is MmedOBPs and MmedCSPs (MmdeOBP1–10, MmedCSP1). On the set-up: method as in PMID 20388293. To be noted: MmdeOBP1–10 and MmedCSP1; ref [22], [23]; cited from earlier work.
Another test deals with M. mediator. On the set-up: method as in PMID 20388293. To be noted: ref [22], [23]; cited from earlier work.
For another test, the target named is recombinant MmedCSP3 (Microplitis mediator, UniProt A0A219T7S8). Kind of test: biochemical. The test is classed as binding. The protocol: The bis-ANS and all compounds were dissolved in HPLC purity-grade methanol with a concentration of 1 mM.
The bound chemical was evaluated based on its fluorescence intensity with the assumption that the protein was 100% active with a stoichiometry of 1: 1 (protein: ligand) saturation. The binding curves were linearized using a Scatchard plot, and the dissociation constants of the competitors were calculated from the corresponding IC50 values based on the following equation: Ki = [IC50] / (1 + [bis-ANS] / Kbis-ANS), where [bis-ANS] is the free concentration of bis-ANS and Kbis-ANS is the dissociation constant of the complex protein / bis-ANS [33].

Where [2] appears, read: protein and bis-ANS at 2 μM, competitor 2–40 μM, 50 mM Tris-HCl pH 7.4, mean ± SD, text values are ranges over the named group, read-out: Ki, dissociation constant.

Like-named read-outs stand apart in the source and are kept apart here.

Sequence of recombinant MmedCSP3 (A0A219T7S8 entry or part of it): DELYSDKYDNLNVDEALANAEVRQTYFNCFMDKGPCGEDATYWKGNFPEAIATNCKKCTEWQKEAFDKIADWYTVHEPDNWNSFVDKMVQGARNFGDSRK

Regarding `CCC/C=C/C=O` [(E)-2-hexen-1-al], the “binding affinity to MmedOBPs and MmedCSPs” value in test [1] is recorded as “no any binding affinity”. Also, the “electrophysiological and behavioral responses of M. mediator” value in the test on M. mediator is “could elicit electrophysiological and behavioral responses”.

On to `CC/C=C\CCOC(C)=O` [(Z)-3-hexenyl acetate], for which the “binding affinity to MmedOBPs and MmedCSPs” value in test [1] is recorded as “no any binding affinity”. Further, the “electrophysiological and behavioral responses of M. mediator” value in the test on M. mediator is “could elicit electrophysiological and behavioral responses”.

In the case of `CCCC(=O)OCC` [Ethyl butyrate], the Ki at recombinant MmedCSP3 (setting [2]) came to 32.9 ± 7.43 µM.

Consider `COC(=O)c1ccccc1O` [Methyl salicylate], for which, at recombinant MmedCSP3, the Ki was 39.22 ± 0.25 µM.

Regarding `CCCCCCCC/C=C\CCCCCCCC(=O)O` [Octadecenoic acid], the Ki on recombinant MmedCSP3 (setting [2]) was found to be 18.2 ± 1.74 µM.

With `CCCCCCCCCCCCCCCC(=O)O` [Palmitic acid], on recombinant MmedCSP3, the inhibition constant Ki worked out at 22.2 ± 1.82 µM.

On to `C=C/C=C(\C)CC/C=C(\C)CCC=C(C)C` [TMTT, (3E, 7E)-4,8, 12-trimethyltrideca-1,3,7, 11-tetraene], for which the inhibitory constant (Ki) at recombinant MmedCSP3 (setting [2]) is 26.8 ± 1.27 µM.

Regarding `O=S(=O)(O)c1cccc2c(-c3ccc(Nc4ccccc4)c4c(S(=O)(=O)O)cccc34)ccc(Nc3ccccc3)c12` [bis-ANS, 4, 4’-dianilino-1,1’-binaphthyl-5,5’-sulfonic acid, reference compound], the Kd on recombinant MmedCSP3 (2 μM protein titrated with bis-ANS 2–16 μM, 50 mM Tris-HCl pH 7.4, read-out: dissociation constant of the MmedCSP3 / bis-ANS complexes) was 1.75 ± 0.42 µM.

As to `CCCC/C=C\CCCCCCCCCCO` [cis-11-hexadecanol], the Ki on recombinant MmedCSP3 (setting [2]) amounted to 17.6 ± 1.19 µM.

`CCCC/C=C\CCCCCCCCCC=O` [cis-11-hexadecenyl Aldehyde, cis-11-hexadecenyl aldehyde]: on recombinant MmedCSP3 (setting [2]), the inhibition constant (Ki) is 17.2 ± 1.67 µM.

Take `CC/C=C/CCCCCCCCCCOC(C)=O` [trans-11-tetradecenyl acetate]: the Ki on recombinant MmedCSP3 (setting [2]) is 18.8 ± 2.06 µM.
